Experimental data taken from US20240180898A1, “USE OF AMINOTHIAZOLE DERIVATIVE IN TREATMENT OF IMMUNE INFLAMMATION” (INNAMUNE PHARMACEUTICAL CO. LTD., priority 2021, published 2024).

Experiments:
[1] = test system: macrophages derived from mouse bone marrow; assay: LPS-induced secretion of inflammatory factors from macrophages, ELISA of supernatant; format: cell-based; conditions: 30 umol/L 2 hours before LPS 500 ng/ml for 24 hours; FIG. 2
Protocol: macrophage grouping (in vitro):
Cultivate macrophages derived from mouse bone marrow in vitro.
The experiment was divided into 8 groups, namely: • Control group (untreated mouse bone marrow-derived macrophages), • LPS group (500 ng/ml LPS stimulated macrophages for 24 hours), • LPS+TJ-2 group (2 hours before LPS stimulation, administer 30 umol/L TJ-2 drug stimulation), • LPS+TJ-5 group (2 hours before LPS stimulation, administer 30 umol/L TJ-5 drug stimulation), • LPS+TJ-8 group (2 hours before LPS stimulation, administer 30 umol/L TJ-8 drug stimulation), • LPS+TJ-9 group (2 hours before LPS stimulation, administer 30 umol/L TJ-9 drug stimulation), • LPS+TJ-11 group (2 hours before LPS stimulation, administer 30 umol/L TJ-11 drug stimulation), • and LPS+TJ-12 group (2 hours before LPS stimulation, administer 30 umol/L TJ-12 drug stimulation).
After 24 hours of LPS stimulation, the cell culture supernatant was removed and ELISA was performed to detect the concentration of various inflammatory factors in the supernatant.

[2] = test system: mouse spleen derived B cells; assay: R848 induced lupus like B cell immune disorder model in vitro; format: cell-based; conditions: TJ-5 10 or 20 μmol/L 3 hours before R848 500 ng/ml 48 hours
Protocol: Preparation and grouping of an in vitro lupus like B cell immune disorder model:
Model preparation: Mouse spleen derived B cells were purified using a magnetic bead sorting kit and cultured in vitro. Stimulating factor CD40L was added to maintain the long-term survival of B cells in vitro. Lupus like B cell immune disorders were induced by stimulating B cells with R848 (500 ng/ml) for 48 hours.
The experiment is divided into four groups, namely: • Control group (without any treatment, normal cultured B cells); • R848 group (model group): Stimulate B cells with R848 (500 ng/ml) for 48 hours; • TJ-5 (10 μM) Group: First use TJ-5 (10 μmol/L) Pre stimulate B cells for 3 hours, then stimulate B cells with R848 (500 ng/ml) for 48 hours; • TJ-5 (20 μM) Group: First use TJ-5 (20 μmol/L) Pre stimulate B cells […] for 3 hours, then stimulate B cells with R848 (500 ng/ml) for 48 hours.
Collect cells and cell culture supernatant for detection after R848 stimulation is completed.

heart grafts = assay: allogeneic heart transplantation, Balb/c to B6; format: in vivo, mouse
From the text: (§1) The paired mice for transplantation: The donor mouse is a balb/c mouse; The recipient mouse is B6 mouse. Transplant the donor's skin or heart separately to the recipient. After skin transplantation, INNA1605 (TJ-M2010-5) was continuously used for 2 weeks and then stopped. About 38% of the transplanted skin was permanently non-rejection. After administering TJ-M2010-5 for two weeks after allogeneic heart transplantation, 60% of the heart grafts were permanently not rejected. In these surviving recipient mice (non-rejection), the hearts of the same donor mice were transplanted for a second time without any treatment. The result was 100% non-rejection of the heart, confirming the development of immune tolerance against the same antigen (see FIGS. 34 and 35).

high-fat diet obese mice = assay: high-fat diet obesity and fatty liver model; format: in vivo, mouse
From the text: Feed B6 mice with a high-fat diet (HFD) to create an obesity model. Divide the animals into three groups: normal diet group, high-fat diet group, and high-fat diet group with INNA1605 (TJ-M2010-5) added at the same time. Conduct three control groups to measure body weight, inguinal and epididymal fat size, liver size, and examine the liver and various adipose tissues of each group.

dry eye disease model = assay: experimental dry eye (EDE) model; format: in vivo, mouse; conditions: day 9, vs EDE group
From the text: Dry eye disease was induced by placing mice in a experimental dry eye (EDE) condition and administering scopolamine to maximize ocular surface dryness. Animals were divided into three groups: non-EDE group, EDE group and EDE+TJ-5 group. Mice were euthanized on day 9 for cellular and molecular analysis.

IRI model of mouse liver = assay: hepatic IRI model, western blotting of liver protein; conditions: in vivo
From the text: The IRI model of mouse liver was established. Animals were divided into three groups: Sham group, IRI group and IRI+TJ-5 group. Protein extracted from mouse liver was detected.

[3] = preclinical safety assessment, intravenous injection; format: in vivo
Protocol: Direct intravenous injection of 30 mg/kg or more will cause elevated liver enzyme toxicity, and it has no toxic effect at 10 mg/kg.

[4] = drug concentration in blood after skin ointment on maximum body area; format: in vivo; conditions: skin ointments applied to the maximum body area
transplanted skin = assay: allogeneic skin transplantation, Balb/c to B6; format: in vivo, mouse; conditions: used for 2 weeks then stopped
From the text: as §1

allergic rhinitis model = assay: OVA allergic rhinitis (AR) model; format: in vivo, mouse
Protocol: To establish a model of AR, mice were injected intraperitoneally with 25 μg ovalbumin (OVA) and 2 mg aluminum hydroxide on days 0, 7, and 14 to promote primary sensitization. One week after the primary sensitization, the secondary immunization was built. Mice were intranasally challenged with 3% OVA daily from 21 to 35 days. Animals were divided into three groups: Sham group, AR group and AR+TJ-5 group. After 35 days of OVA administration, the number of mice rubbing and sneezing within 10 min was recorded. Nasal lavage fluid was collected 12 h after OVA treatment under anesthesia.

CSDS depression model = assay: Frustrative Depression (CSDS) model; format: in vivo, mouse; conditions: C57BL/6J mice
Protocol: Male C57BL/6J mice (6-7 weeks old, 18-20 g weight) and male CD-1 mice ([…] old) were used to create a model of Frustrative Depression (CSDS). C57BL/6J mice were attacked by different CD-1 […] for 10 minutes every day for 10 consecutive days. At night, the two types of mice were kept in the same cage separated by a perforated transparent glass to maintain the pressure of the attack.

O=C(CCN1CCN(Cc2ccccc2)CC1)Nc1nc(-c2ccccc2)cs1 [INNA1605, 3-(4-benzylpiperazine-1-yl)-N-(4-phenylthiazole-2-yl) propionamide]
inhibitory effect on inflammatory factors compared among the compounds [1]: have the same inhibitory effect on inflammatory factors
secretion of various inflammatory factors in macrophages (IL-1β, Il-6, TNF-α, IL-18, IL-17) [1]: can inhibit the secretion of various inflammatory factors in macrophages
abnormal activation and differentiation of B cells [2]: can inhibit abnormal activation and differentiation of B cells
secretion of B cell autoantibodies and inflammatory factors [2]: inhibit the secretion of B cell autoantibodies and inflammatory factors
heart grafts permanently not rejected (heart grafts; administered for two weeks): 60%
non-rejection of second heart of the same donor mice (heart grafts; surviving recipient mice, second transplant without any treatment): 100%
adipose tissue, liver, and body weight (high-fat diet obese mice; B6 mice, added with high-fat diet, FIG. 37): significantly smaller than those of the obese group and close to those of normal mice
weight of obese mice fed with high-fat diet (high-fat diet obese mice; FIG. 25): significantly reduced the weight of high-fat diet obese mice
lipid droplets in the adipose tissue and liver (high-fat diet obese mice; pathological examination, FIG. 38): significantly smaller than those of the obese group, and were similar to normal mice
corneal fluorescein staining score (dry eye disease model): significantly lower corneal fluorescein staining score
expression of IL-1β, TNF-α, MCP-1 and IL-6 in corneal tissues (dry eye disease model): reduced expression
GSDMD cleavage in liver (IRI model of mouse liver): effectively inhibited GSDMD cleavage
NLRP3, cleavage of caspase-1 (upregulated) and pro-caspase-1 (downregulated) following IRI (IRI model of mouse liver): this trend was reversed
cleavage of caspase-11 (IRI model of mouse liver): effectively inhibited cleavage of caspase-11
dose causing elevated liver enzyme toxicity ([3]; direct intravenous injection): ≥ 30 mg/kg
dose with no toxic effect ([3]; direct intravenous injection): 10 mg/kg
toxicity to the body ([3]; preclinical trial results): low toxicity to the body
drug concentration in the blood [4]: 2 to 3 ng/mL
transplanted skin permanently non-rejection (transplanted skin): About 38%
levels of IL-4, IL-1β, IL-18 and TNF-α in nasal mucosa (allergic rhinitis model; mouse, in vivo): decreased
sneezing and nasal rubbing (allergic rhinitis model; within 10 min after 35 days of OVA): relieved these symptoms
induced depressive behavior and neuroinflammation in the brain (CSDS depression model): significantly improves induced depressive behavior and neuroinflammation in the brain
